Where “and” joins values, the source holds several entries; their conditions need not be identical. Equal values may be shown once. Toxic doses and inconclusive results are not listed.
Tested on: CD2F1 mice, L1210 leukemia ip, survival T/C
Test: NCI In Vivo Anticancer Drug Screen. Data for tumor model L1210 Leukemia (intraperitoneal) in CD2F1 (CDF1) mice
Conditions: endpoint: mean survival time, higher = longer survival
Outline: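 In this screen, transplantable tumors were grown in mice given either the compound or its vehicle. Results were expressed as the treated measurement relative to the control measurement.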

[1] = dose: 100.0 mg/kg/injection, schedule: Q01DX001 (ip), vehicle: saline
[2] = dose: 200.0 mg/kg/injection, schedule: Q01DX001 (ip), vehicle: saline
[3] = dose: 100.0 mg/kg/injection, schedule: Q04DX003 (ip), vehicle: saline
[4] = dose: 200.0 mg/kg/injection, schedule: Q04DX003 (ip), vehicle: saline
[5] = dose: 400.0 mg/kg/injection, schedule: Q04DX003 (ip), vehicle: saline
[6] = dose: 400.0 mg/kg/injection, schedule: Q01DX001 (ip), vehicle: saline
[7] = dose: 100.0 mg/kg/injection, schedule: Q04DX003 (ip), vehicle: saline with Tween-80
[8] = dose: 200.0 mg/kg/injection, schedule: Q04DX003 (ip), vehicle: saline with Tween-80
[9] = dose: 400.0 mg/kg/injection, schedule: Q04DX003 (ip), vehicle: saline with Tween-80
[10] = dose: 100.0 mg/kg/injection, schedule: Q01DX009 (ip), vehicle: saline with Tween-80
[11] = dose: 200.0 mg/kg/injection, schedule: Q01DX009 (ip), vehicle: saline with Tween-80
[12] = dose: 100.0 mg/kg/injection, schedule: Q01DX001 (ip), vehicle: saline with Tween-80
[13] = dose: 200.0 mg/kg/injection, schedule: Q01DX001 (ip), vehicle: saline with Tween-80
[14] = dose: 400.0 mg/kg/injection, schedule: Q01DX001 (ip), vehicle: saline with Tween-80
[15] = dose: 400.0 mg/kg/injection, schedule: Q01DX009 (ip), vehicle: saline with Tween-80
[16] = dose: 100.0 mg/kg/injection, schedule: Q04DX002 (ip), vehicle: saline with Tween-80
[17] = dose: 400.0 mg/kg/injection, schedule: Q04DX002 (ip), vehicle: saline with Tween-80

For `CCOC(=O)CCC(NC(=O)N(CCCl)CCCl)C(=O)OCC` (configuration not stated), the T/C (dose: 25.0 mg/kg/injection, schedule: Q01DX001 (ip), vehicle: carboxymethylcellulose (CMC)) was 97 % of control, the T/C (dose: 50.0 mg/kg/injection, schedule: Q01DX001 (ip), vehicle: carboxymethylcellulose (CMC)) was 106 % of control and the T/C [1] was 103 % of control. The T/C [2] was 114 % of control and the T/C (dose: 900.0 mg/kg/injection, schedule: Q01DX001 (ip), vehicle: carboxymethylcellulose (CMC)) was 102 % of control.

With `CC(=O)CC(C)=O` the T/C [3] was 103 % of control, the T/C [4] was 94 % of control and the T/C [5] was 100 % of control.

With `Cn1ncc(C(=O)O)c1[N+](=O)[O-]` the T/C [1] was 102 % of control, the T/C [2] was 103 % of control and the T/C [6] was 94 % of control.

`Cc1ccc(C(=O)c2ccccc2C(=O)O)cc1O` was tested, and the T/C [7] was 98 % of control, the T/C [8] was 101 % of control and the T/C [9] was 106 % of control.

`Cc1ccc(Sc2cccc3c2C(=O)c2c(Sc4ccc(C)cc4)cccc2C3=O)cc1` was tested, and the T/C [10] was 93 % of control and the T/C [11] was 86 % of control.

With `COc1cc2c(c(Oc3ccc(C)cc3)c1)CN(C)CC2` the T/C (dose: 25.0 mg/kg/injection, schedule: Q04DX003 (ip), vehicle: saline) was 105 % of control, the T/C (dose: 50.0 mg/kg/injection, schedule: Q04DX003 (ip), vehicle: saline) was 100 % of control and the T/C [3] was 105 % of control.

In the case of `O=C(C=P(c1ccccc1)(c1ccccc1)c1ccccc1)c1ccccc1`, the T/C [7] is reported as 97 % of control, the T/C [8] is reported as 101 % of control and the T/C [9] is reported as 89 % of control.

In the case of `c1ccc(CCc2nc(-c3ccccc3)cc(-c3ccccc3)n2)cc1`, the T/C [12] is reported as 89 % of control, the T/C [13] is reported as 92 % of control and the T/C [14] is reported as 87 % of control.

For `CC(C)(C)CC(C)(C)c1ccc(OCCOc2ccccc2N)cc1`, the T/C [10] was 88 % of control, the T/C [11] was 88 % of control and the T/C [15] was 94 % of control.

For `O=C(O)c1cnc(Cl)nc1Nc1ccccc1I`, the T/C [13] was 86 % of control.

For `[CH3][Sn]1([CH3])[O]C2C(CO)OC(n3ccc(=O)[nH]c3=O)C2[O]1` (configuration not stated), the T/C (dose: 12.5 mg/kg/injection, schedule: Q01DX005 (ip), vehicle: other) was 95 % of control, the T/C (dose: 25.0 mg/kg/injection, schedule: Q01DX005 (ip), vehicle: other) was 101 % of control and the T/C (dose: 50.0 mg/kg/injection, schedule: Q01DX005 (ip), vehicle: other) was 92 % of control.

For `O=C1/C(=C/c2ccccc2)CCS(=O)(=O)c2ccccc21`, the T/C [12] was 97 % of control, the T/C [13] was 97 % of control and the T/C [14] was 90 % of control.

With `O=C(O)c1ccccc1C(=O)NCc1ccccn1` the T/C (dose: 50.0 mg/kg/injection, schedule: Q01DX009 (ip), vehicle: Klucel (hydroxypropylcellulose) (HPC)) was 90 % of control, the T/C (dose: 100.0 mg/kg/injection, schedule: Q01DX009 (ip), vehicle: Klucel (hydroxypropylcellulose) (HPC)) was 97 % of control and the T/C (dose: 200.0 mg/kg/injection, schedule: Q01DX009 (ip), vehicle: Klucel (hydroxypropylcellulose) (HPC)) was 101 % of control.

With `c1cnc2c(c1)CCCC2` the T/C (dose: 12.5 mg/kg/injection, schedule: Q01DX009 (ip), vehicle: saline with Tween-80) was 95 % of control, the T/C (dose: 25.0 mg/kg/injection, schedule: Q01DX009 (ip), vehicle: saline with Tween-80) was 91 % of control and the T/C (dose: 50.0 mg/kg/injection, schedule: Q01DX009 (ip), vehicle: saline with Tween-80) was 87 % of control.

In the case of `NC(=O)OCCc1c2ccccc2nc2ccccc12`, the T/C (dose: 25.0 mg/kg/injection, schedule: Q04DX002 (ip), vehicle: other) is reported as 96 % of control, the T/C (dose: 50.0 mg/kg/injection, schedule: Q04DX002 (ip), vehicle: other) is reported as 93 % of control and the T/C (dose: 100.0 mg/kg/injection, schedule: Q04DX002 (ip), vehicle: other) is reported as 93 % of control. The T/C [16] was 105 % of control and the T/C [17] was 105 % of control.

`COc1ccc2occc2c1` was tested, and the T/C [7] was 94 % of control, the T/C [8] was 94 % of control and the T/C [9] was 91 % of control.

In the case of `C=CS(=O)(=O)CCCC`, the T/C (dose: 100.0 mg/kg/injection, schedule: Q01DX001 (ip), vehicle: Klucel (hydroxypropylcellulose) (HPC)) is reported as 96 % of control, the T/C (dose: 200.0 mg/kg/injection, schedule: Q01DX001 (ip), vehicle: Klucel (hydroxypropylcellulose) (HPC)) is reported as 96 % of control and the T/C (dose: 400.0 mg/kg/injection, schedule: Q01DX001 (ip), vehicle: Klucel (hydroxypropylcellulose) (HPC)) is reported as 101 % of control.

In the case of `O=C(NNc1ccccc1OCc1ccccc1)C(F)(F)F`, the T/C [7] is reported as 102 % of control, the T/C [8] is reported as 103 % of control and the T/C [9] is reported as 103 % of control.

In the case of `C/C=C/c1cnc(N)nc1-c1ccccc1`, the T/C [16] is reported as 101 % of control, the T/C (dose: 200.0 mg/kg/injection, schedule: Q04DX002 (ip), vehicle: saline with Tween-80) is reported as 96 % of control and the T/C [17] is reported as 96 % of control.

In the case of `N#CSCc1cc(=O)c(O)co1`, the T/C (dose: 6.25 mg/kg/injection, schedule: Q04DX003 (ip), vehicle: saline with Tween-80) is reported as 104 % of control and the T/C (dose: 12.5 mg/kg/injection, schedule: Q04DX003 (ip), vehicle: saline with Tween-80) is reported as 94 % of control.

`COC1C(O)CC(OC2CC(OC3CC(O[C@@H]4C(=O)c5c(cc6cc(OC7CC(OC8CC(O)C(O)C(C)O8)C(O)C(C)O7)c(C)c(O)c6c5O)C[C@H]4[C@H](OC)C(=O)[C@@H](O)[C@@H](C)O)OC(C)C3O)OC(C)C2O)OC1C` (some centres not stated) was tested, and the T/C (dose: 0.09 mg/kg/injection, schedule: Q01DX009 (ip), vehicle: saline) was 97 % of control, the T/C (dose: 0.18 mg/kg/injection, schedule: Q01DX009 (ip), vehicle: saline) was 103 % of control and the T/C (dose: 0.37 mg/kg/injection, schedule: Q01DX009 (ip), vehicle: saline) was 111 % of control. The T/C (dose: 0.75 mg/kg/injection, schedule: Q01DX009 (ip), vehicle: saline) was 104 % of control, the T/C (dose: 1.5 mg/kg/injection, schedule: Q01DX009 (ip), vehicle: saline) was 95 % of control and the T/C (dose: 375.0 micrograms/kg/injection, schedule: Q01DX009 (ip), vehicle: saline) was 110 % of control. The T/C (dose: 750.0 micrograms/kg/injection, schedule: Q01DX009 (ip), vehicle: saline) was 115 % of control, the T/C (dose: 1500.0 micrograms/kg/injection, schedule: Q01DX009 (ip), vehicle: saline) was 109 % of control and the T/C (dose: 3000.0 micrograms/kg/injection, schedule: Q01DX009 (ip), vehicle: saline) was 104 % of control.

`Cc1ccnc(NS(=O)(=O)c2ccc(N=Nc3nc4[nH]c(N)nc(=S)c4[nH]3)cc2)n1` was tested, and the T/C (dose: 0.2 mg/kg/injection, schedule: Q01DX009 (ip), vehicle: Klucel (hydroxypropylcellulose) (HPC)) was 96 % of control, the T/C (dose: 0.4 mg/kg/injection, schedule: Q01DX009 (ip), vehicle: Klucel (hydroxypropylcellulose) (HPC)) was 106 % of control and the T/C (dose: 0.8 mg/kg/injection, schedule: Q01DX009 (ip), vehicle: Klucel (hydroxypropylcellulose) (HPC)) was 106 % of control. For the same compound, the T/C (dose: 1.56 mg/kg/injection, schedule: Q01DX009 (ip), vehicle: Klucel (hydroxypropylcellulose) (HPC)) was 203 % of control, the T/C (dose: 1.6 mg/kg/injection, schedule: Q01DX009 (ip), vehicle: Klucel (hydroxypropylcellulose) (HPC)) was 117 % of control and the T/C (dose: 3.13 mg/kg/injection, schedule: Q01DX009 (ip), vehicle: Klucel (hydroxypropylcellulose) (HPC)) was 150 % of control. The T/C (dose: 6.25 mg/kg/injection, schedule: Q01DX009 (ip), vehicle: Klucel (hydroxypropylcellulose) (HPC)) was 117 % of control.

In the case of `CCOc1ccc(/C=C/[N+](=O)[O-])cc1`, the T/C [10] is reported as 114 % of control, the T/C [7] is reported as 104 % of control and the T/C [11] is reported as 89 % of control. The T/C [8] was 98 % of control and the T/C [9] was 111 % of control.

For `CNC(=S)N(/N=C/c1cc(Cl)cc(Cl)c1O)c1ccccc1`, the T/C [12] was 87 % of control, the T/C [13] was 87 % of control and the T/C [14] was 91 % of control.

With `COC1=CCC2=C(CCO2)C1` the T/C (dose: 100.0 mg/kg/injection, schedule: Q01DX009 (ip), vehicle: acetone) was 91 % of control, the T/C (dose: 200.0 mg/kg/injection, schedule: Q01DX009 (ip), vehicle: acetone) was 98 % of control and the T/C (dose: 400.0 mg/kg/injection, schedule: Q01DX009 (ip), vehicle: acetone) was 100 % of control.

With `OC(CN(C1CCCCC1)C1CCCCC1)c1ccc(Cl)c(Cl)c1` (configuration not stated) the T/C [1] was 95 % of control, the T/C [3] was 95 % of control and the T/C [2] was 91 % of control. The T/C [4] was 98 % of control, the T/C [6] was 96 % of control and the T/C [5] was 101 % of control.

With `Cc1c(Br)c(=O)[nH]c2ccccc12` the T/C [10] was 96 % of control, the T/C [7] was 101 % of control and the T/C [11] was 96 % of control. The T/C [8] was 98 % of control, the T/C [15] was 94 % of control and the T/C [9] was 101 % of control.

For `CCCCc1ccc(O)c(CN2CCCCC2)c1`, the T/C (dose: 25.0 mg/kg/injection, schedule: Q04DX003 (ip), vehicle: saline with Tween-80) was 97 % of control, the T/C (dose: 50.0 mg/kg/injection, schedule: Q04DX003 (ip), vehicle: saline with Tween-80) was 102 % of control and the T/C [7] was 98 % of control and 100 % of control.

From PubChem BioAssay AID256 (DTP/NCI, 2004)
